Results on 31 compounds are retold here after publication PMC12040169 (PLOS Biology, 2025).

This series in a line: in vitro. The note with it: human, hela cells, % viability.
As for `COc1cncc(-c2cnc(N)c(N3CCOCC3)n2)c1` [CBK063360], the viability at 28.5 h, 10 µM is 96.7%.
Take `c1csc(CCN2CCC3(CC2)OCCc2c3[nH]c3ccccc23)c1` [CBK040156]: the viability at 28.5 h, 10 µM came to 87.1%.
To `COc1ccccc1CCCNC(=O)CC1CCCCN1C` (stereo not shown) [CBK282694] belongs 101%; to `O=C(O)CCC(=O)CCC(=O)c1ccc(F)cc1` [CBK287191], 87.3%; to `CCN1C(=O)CC2(C1=O)C(=O)N(CC)c1ccc(C)cc12` (stereo not shown) [CBK075140], 99.4%.
To `CC[C@H](Cn1nc(-c2cccs2)ccc1=O)NC(=O)C1CCC1` [CBK284295] belongs 103%; to `CC(=O)N[C@@H](Cc1ccccc1)C(=O)N1CC[C@H]2NC(=O)[C@H](Cc3ccccc3)NC(=O)C3(C/C=C/C[C@@H]2C1)CCOCC3` [CBK292190], 82.2%; to `O=C(O)CCCC(=O)Nc1ccccc1-c1nc2ccccc2[nH]c1=O` [CBK280451], 85.9%.
With `O=C(O)c1cc(C=Cc2cn(Cc3ccccc3)nc2-c2cccnc2)nc2ccccc12` [CBK296988], the viability at 28.5 h, 10 µM was 105%.
For the compound `CCN1C(=O)CC2(C1=O)C(=O)N(Cc1cccc(CN3C(=O)CCC3=O)c1)c1ccccc12` (stereo not shown) [CBK075508], the viability at 28.5 h, 10 µM was determined as 104%.
To `COc1ccccc1CN(Cc1cccnc1)C(=O)CCN1CCCO1` [CBK306959] belongs 98.1%; to `OC1(c2cccnc2F)CCN(Cc2ccc(F)cc2F)CC1` [CBK284369], 82.6%.
To `COC(=O)c1c(NC(=S)N2CCN(Cc3c(C)nn(C)c3C)CC2)sc2c1CCC(C)C2` (stereo not shown) [CBK267103] belongs 94.9%; to `O=[N+]([O-])c1ccc(S(=O)(=O)NCCSCc2cccc(Cl)c2)cc1` [CBK268066], 107%.
Regarding `CCN(C(=O)Cc1cc(OC)ccc1Br)c1cccnc1` [CBK305318], the viability at 28.5 h, 10 µM was 97.7%.
To `Cc1cc([N+](=O)[O-])ccc1NC(=O)Cn1cnc2c1c(=O)n(C)c(=O)n2C` [CBK263162] belongs 105%.
To `CCOC(=O)c1cnn(C2CCCN(c3ccc(C#N)nc3)C2)c1` (stereo not shown) [CBK306458] belongs 113%.
Consider `CCCc1cc(O)nc(SCCCCn2ccnc2C)n1` [CBK306359], for which the viability at 28.5 h, 10 µM turned out to be 107%.
As to `c1cc2[nH]ccc2c(N2CCNCC2)n1` [CBK051673C], the viability at 28.5 h, 10 µM was 90.7%.
Turning to `COc1ccc(F)cc1S(=O)(=O)N1CCCN(S(=O)(=O)c2cc(F)ccc2OC)CC1` [CBK266555], the viability at 28.5 h, 10 µM came to 93.5%.
For `O=C(Nc1nccs1)c1c(O)n(Cc2ccccc2)c2ccccc2c1=O` [CBK291173], the viability at 28.5 h, 10 µM was found to be 96.6%.
To `COc1ccc(C(=O)OC(C)(C)C)c(-c2nccnc2N2CCCN(C)CC2)c1` [CBK037360] belongs 103%; to `CC(C)Cc1noc(CN2CCC(C(=O)NCc3ccco3)CC2)n1` [CBK305995], 107%.
To `CCNC(=O)N1CC2(CCN(CCCCC3NC(=O)NC3=O)CC2)c2ccccc21` (stereo not shown) [CBK126707] belongs 92.2%.
To `COc1ccc(-c2cc3cccnc3n2CC(=O)NC(C)C)cc1` [CBK285380] belongs 100%.
As for `Cc1nc(SCC(=O)NCC2CCCOC2)oc1C` (stereo not shown) [CBK282195], the viability at 28.5 h, 10 µM worked out at 94.6%.
`O=C1Nc2ccc(-c3ccccc3F)cc2C(=O)N2CCN(C(=O)C3CCNCC3)C[C@H]12` [CBK289592]: the viability at 28.5 h, 10 µM was 87.3%.
As to `COc1ccc(-c2ccc(/C=N/NC(=O)c3ccncc3)o2)c([N+](=O)[O-])c1` [CBK262156], the viability at 28.5 h, 10 µM came out at 97.3%.
To `CC(C)c1nc(CC(=O)NCCC(=O)N2CCCc3ccccc32)cs1` [CBK305437] belongs 98.1%.
To `Cc1cc(NC(=O)CCN2CCC(N3CCNC3=O)CC2)no1` [CBK304909] belongs 89.9%; to `Cn1ccnc1C1(O)CCN(C(=O)Nc2ccc(F)cc2)CC1` [CBK282277], 97.4%.

Usually viability stands for a read-out of living cells in per cent, often relative to untreated cells.
